Assay results taken from PubChem BioAssay (NCI).
Several values for one entry are separate records, joined by “and”; a condition that tells them apart may be missing. Equal entries are not always repeated.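 Each compound was tested at five concentrations against cells in 96-well plates for 48 hours. Abbreviation: GI50, concentration required for 50% inhibition of growth. TGI denotes the concentration required for complete inhibition of growth.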

Experiments:
Test in all cases: inhibition of tumour cell growth, NCI panel, 48 h
[1] = test system: OVCAR-8 ovarian
[2] = test system: SF-295 CNS
[3] = test system: SNB-75 CNS
[4] = test system: IGROV1 ovarian
[5] = test system: M14 melanoma
[6] = test system: SNB-19 CNS
[7] = test system: MDA-MB-435

Structure (SMILES)	GI50 [1]	TGI [1]	GI50 [2]	TGI [2]	GI50 [3]	TGI [3]	GI50 [4]	TGI [4]	GI50 [5]	TGI [5]	GI50 [6]	TGI [6]	GI50 [7]	TGI [7]
O=S(=O)(NCCNC/C=C/c1ccc(Br)cc1)c1cccc2cnccc12	13 µM and 15.6 µM	28.5 µM and 32.3 µM	6.47 µM and 11.6 µM	22.9 µM and 25.1 µM	3.14 µM and 1.85 µM	14.7 µM and 13.5 µM	6.4 µM and 10.4 µM	23.2 µM and 26.4 µM	12.8 µM and 15.3 µM	26.4 µM and 30.9 µM	13.1 µM and 17.7 µM	27 µM and 34.1 µM	9.22 µM and 12.5 µM	25.2 µM and 25.6 µM
C[C@]12CC[C@H]3[C@@H](CCC4=CC(=O)CC[C@@H]43)[C@@H]1CC[C@@H]2OC(=O)CCc1ccccc1	21.5 µM	49.3 µM	15.5 µM	30.6 µM	29 µM	> 100 µM	20.5 µM	42 µM	21.2 µM	46.4 µM	18.4 µM	37.5 µM	24.5 µM	> 80.2 µM
COc1ccc(-c2n[nH]nc2-c2cc(OC)c3c(c2OC)OCO3)cc1	2.02 µM	> 69 µM	0.658 µM	5.67 µM	0.573 µM	3.96 µM	0.885 µM	> 68 µM	0.433 µM	19.5 µM	3.82 µM	> 100 µM	0.227 µM	0.761 µM
Clc1cc(Cl)c(OCC#CI)cc1Cl	3.39 µM	13.1 µM	10.4 µM	23.7 µM	6.13 µM	20 µM	–	–	2.13 µM	5.41 µM	18.3 µM	43.9 µM	2.02 µM	5.44 µM
Cc1ccc(C2=NOC3=c4ccccc4=CSC3=C2c2ccc([N+](=O)[O-])cc2)cc1	6.22 µM	40.5 µM	13.3 µM	49.9 µM	24.5 µM	81.4 µM	14.2 µM	> 100 µM	18.6 µM	> 100 µM	17.6 µM	63.7 µM	57.9 µM	> 100 µM
COc1ccc2cc(-c3ccoc(=O)c3-c3cc(OC)c(OC)c(OC)c3)ccc2c1	0.334 µM	> 100 µM	0.045 µM	–	0.0977 µM	> 100 µM	0.0339 µM	> 20.6 µM	0.0681 µM	> 100 µM	0.125 µM	> 100 µM	–	–
CS(=O)(=O)c1ccc(C(=O)Nc2ccc(Cl)c(-c3ccccn3)c2)c(Cl)c1	–	> 100 µM and 25.5 µM	–	–	14.4 µM and 3.14 µM	> 100 µM and 79 µM	–	> 100 µM	–	> 100 µM and 11.1 µM	–	> 100 µM	–	–
CN(C)c1ccc2c(c1)Sc1cc(N(C)C)ccc1N2C(=O)c1ccccc1	50.3 µM	> 100 µM	10.1 µM	> 100 µM	15.4 µM	66.3 µM	14.1 µM	77.6 µM	75 µM	> 100 µM	34.2 µM	> 100 µM	65 µM	> 100 µM
CCN=C1C=CC(=C(c2ccc(N)cc2)c2ccc(N(CC)CC)c(C)c2)C=C1	–	–	0.223 µM	0.745 µM	0.204 µM	0.65 µM	0.537 µM	4.01 µM	0.349 µM	1.77 µM	0.225 µM	1.62 µM	0.286 µM	0.884 µM
